Results published in patent US12077503B2, “Substituted cyclic amides and their use as herbicides” (FMC CORPORATION, priority 2015, dated 2024).

Tests used:
Assay type in all cases: in vivo
[1] = tested on: sedge, umbrella (small-flower umbrella sedge, Cyperus difformis); experiment: Test B flooded paddy test; conditions: Flood, 0 to 100 scale where 0 is no effect and 100 is complete control, 13 to 15 d
Procedure: (§1) Plant species in the flooded paddy test selected from rice (Oryra sativa), sedge, umbrella (small-flower umbrella sedge, Cyperus difformis), ducksalad (Heteranthera limosa), and barnyardgrass (Echinochloa crus-galli) were grown to the 2-leaf stage for testing. At time of treatment, test pots were flooded to 3 cm above the soil surface, treated by application of test compounds directly to the paddy water, and then maintained at that water depth for the duration of the test. Treated plants and controls were maintained in a greenhouse for 13 to 15 d, after which time all species were compared to controls and visually evaluated. Plant response ratings, summarized in Table B, are based on a scale of 0 to 100 where 0 is no effect and 100 is complete control. A dash (-) response means no test result.

[2] = tested on: barnyardgrass (Echinochloa crus-galli); experiment: Test B flooded paddy test; conditions: Flood, 0 to 100 scale where 0 is no effect and 100 is complete control, 13 to 15 d
Procedure: as §1

rice (Oryra sativa) = experiment: Test B flooded paddy test; conditions: Flood, 0 to 100 scale where 0 is no effect and 100 is complete control, 13 to 15 d
Procedure: as §1

[3] = tested on: ducksalad (Heteranthera limosa); experiment: Test B flooded paddy test; conditions: Flood, 0 to 100 scale where 0 is no effect and 100 is complete control, 13 to 15 d
Procedure: as §1

[4] = tested on: barnyardgrass (Echinochloa crus-galli); experiment: Test A postemergence
From the text: (§2) Seeds of plant species selected from barnyardgrass (Echinochloa crus-galli), Kochia (Kochia scoparia), ragweed (common ragweed, Ambrosia elatior), ryegrass, Italian (Italian ryegrass, Lolium multiflorum), crabgrass, large (Digitaria sanguinalis), giant foxtail (Setaria faberii), green foxtail (Setaria viridis), morningglory (Ipomoea spp.), pigweed (Amaranthus retroflexus), velvetleaf (Abutilon theophrasti), wheat (Triticum aestivum), and corn (Zea mays) were planted into a blend of loam soil and sand and treated preemergence with a directed soil spray using test chemicals formulated in anon-phytotoxic solvent mixture which included a surfactant.
(§3) At the same time, plants selected from these crop and weed species and also blackgrass (Alopecurus myosuroides), and Galium (catchweed bedstraw, Galium aparine) were planted in pots containing the same blend of loam soil and sand and treated with postemergence applications of test chemicals formulated in the same manner. Plants ranged in height from 2 to 10 cm and were in the one- to two-leaf stage for the postemergence treatment. Treated plants and untreated controls were maintained in a greenhouse for approximately 10 d, after which time all treated plants were compared to untreated controls and visually evaluated for injury. Plant response ratings, summarized in Table A, are based on a 0 to 100 scale where 0 is no effect and 100 is complete control. A dash (-) response means no test result.

[5] = tested on: blackgrass (Alopecurus myosuroides); experiment: Test A postemergence
From the text: as §2, §3

[6] = tested on: ryegrass, Italian (Italian ryegrass, Lolium multiflorum); experiment: Test A postemergence; conditions: postemergence; for Ryegrass, Italian plant response rating: 125 g ai/ha, visual injury rating on 0 to 100 scale (0 no effect, 100 complete control), approx. 10 d; for Plant response rating, Ryegrass, Italian: 500 g ai/ha, 0 to 100 scale, 0 no effect, 100 complete control
From the text: as §2, §3

[7] = tested on: wheat (Triticum aestivum); experiment: Test A postemergence; conditions: postemergence; for Wheat plant response rating: 125 g ai/ha, visual injury rating on 0 to 100 scale (0 no effect, 100 complete control), approx. 10 d; for Plant response rating, Wheat: 500 g ai/ha, 0 to 100 scale, 0 no effect, 100 complete control
From the text: as §2, §3

Kochia (Kochia scoparia) [8] = experiment: Test A postemergence; conditions: postemergence; for Kochia plant response rating: 125 g ai/ha, visual injury rating on 0 to 100 scale (0 no effect, 100 complete control), approx. 10 d; for Plant response rating, Kochia: 500 g ai/ha, 0 to 100 scale, 0 no effect, 100 complete control
From the text: as §2, §3

[9] = tested on: Galium (catchweed bedstraw, Galium aparine); experiment: Test A postemergence; conditions: postemergence; for Galium plant response rating: 125 g ai/ha, visual injury rating on 0 to 100 scale (0 no effect, 100 complete control), approx. 10 d; for Plant response rating, Galium: 500 g ai/ha, 0 to 100 scale, 0 no effect, 100 complete control
From the text: as §2, §3

[10] = tested on: pigweed (Amaranthus retroflexus); experiment: Test A postemergence; conditions: postemergence; for Pigweed plant response rating: 125 g ai/ha, visual injury rating on 0 to 100 scale (0 no effect, 100 complete control), approx. 10 d; for Plant response rating, Pigweed: 500 g ai/ha, 0 to 100 scale, 0 no effect, 100 complete control
From the text: as §2, §3

corn (Zea mays) = experiment: Test A postemergence; conditions: postemergence; for Corn plant response rating: 125 g ai/ha, visual injury rating on 0 to 100 scale (0 no effect, 100 complete control), approx. 10 d; for Plant response rating, Corn: 500 g ai/ha, 0 to 100 scale, 0 no effect, 100 complete control
From the text: as §2, §3

[11] = tested on: giant foxtail (Setaria faberii); experiment: Test A postemergence; conditions: postemergence; for Foxtail, Giant plant response rating: 125 g ai/ha, visual injury rating on 0 to 100 scale (0 no effect, 100 complete control), approx. 10 d; for Plant response rating, Foxtail, Giant: 500 g ai/ha, 0 to 100 scale, 0 no effect, 100 complete control
From the text: as §2, §3

[12] = tested on: ragweed (common ragweed, Ambrosia elatior); experiment: Test A postemergence; conditions: postemergence; for Ragweed plant response rating: 125 g ai/ha, visual injury rating on 0 to 100 scale (0 no effect, 100 complete control), approx. 10 d; for Plant response rating, Ragweed: 500 g ai/ha, 0 to 100 scale, 0 no effect, 100 complete control
From the text: as §2, §3

[13] = tested on: barnyardgrass (Echinochloa crus-galli); experiment: Test A preemergence; conditions: for Plant response rating, Barnyardgrass: 125 g ai/ha, preemergence, 0 to 100 scale (0 no effect, 100 complete control); for Barnyardgrass plant response rating (0 to 100 scale): Preemergence, 500 g ai/ha, 0 is no effect, 100 is complete control
From the text: as §2, §3

[14] = tested on: ryegrass, Italian (Italian ryegrass, Lolium multiflorum); experiment: Test A preemergence; conditions: for Plant response rating, Ryegrass, Italian: 125 g ai/ha, preemergence, 0 to 100 scale (0 no effect, 100 complete control); for Ryegrass, Italian plant response rating (0 to 100 scale): Preemergence, 500 g ai/ha, 0 is no effect, 100 is complete control
From the text: as §2, §3

Kochia (Kochia scoparia) [15] = experiment: Test A preemergence; conditions: for Plant response rating, Kochia: 125 g ai/ha, preemergence, 0 to 100 scale (0 no effect, 100 complete control); for Kochia plant response rating (0 to 100 scale): Preemergence, 500 g ai/ha, 0 is no effect, 100 is complete control
From the text: as §2, §3

[16] = tested on: pigweed (Amaranthus retroflexus); experiment: Test A preemergence; conditions: for Plant response rating, Pigweed: 125 g ai/ha, preemergence, 0 to 100 scale (0 no effect, 100 complete control); for Pigweed plant response rating (0 to 100 scale): Preemergence, 500 g ai/ha, 0 is no effect, 100 is complete control
From the text: as §2, §3

[17] = tested on: giant foxtail (Setaria faberii); experiment: Test A preemergence; conditions: for Plant response rating, Foxtail, Giant: 125 g ai/ha, preemergence, 0 to 100 scale (0 no effect, 100 complete control); for Foxtail, Giant plant response rating (0 to 100 scale): Preemergence, 500 g ai/ha, 0 is no effect, 100 is complete control
From the text: as §2, §3

[18] = tested on: ragweed (common ragweed, Ambrosia elatior); experiment: Test A preemergence; conditions: for Plant response rating, Ragweed: 125 g ai/ha, preemergence, 0 to 100 scale (0 no effect, 100 complete control)
From the text: as §2, §3

[19] = 500 g ai/ha, postemergence, 0 to 100 scale, 0 no effect, 100 complete control
[20] = Postemergence, 125 g ai/ha, visual injury, 0 to 100 scale (0 no effect, 100 complete control), approx. 10 d

Compound | Plant response rating, Barnyardgrass [4, 19] | Plant response rating, Barnyardgrass [4, 20] | Plant response rating, Blackgrass [5, 19] | Plant response rating, Blackgrass [5, 20] | Ryegrass, Italian plant response rating [6] | Plant response rating, Ryegrass, Italian [6] | Wheat plant response rating [7] | Plant response rating, Wheat [7] | Kochia plant response rating (Kochia (Kochia scoparia) [8]) | Plant response rating, Kochia (Kochia (Kochia scoparia) [8]) | Galium plant response rating [9] | Plant response rating, Galium [9] | Pigweed plant response rating [10] | Plant response rating, Pigweed [10] | Corn plant response rating (corn (Zea mays)) | Plant response rating, Corn (corn (Zea mays)) | Foxtail, Giant plant response rating [11] | Plant response rating, Foxtail, Giant [11] | Ragweed plant response rating [12] | Plant response rating, Ragweed [12] | other results
COc1cccc(C2CNC(=O)C2C(=O)Nc2cccc(F)c2F)c1 (racemic) [Compound 383] | 90 | 70 | 0 | 0 | 20 | 30 | 0 | 0 | 0 | 30 | 0 | 0 | 0 | 0 | 0 | 0 | 30 | 50 | 0 | 20 | Plant response rating, Sedge, Umbrella ([1]; 250 g ai/ha): 0; Plant response rating, Barnyardgrass ([2]; 250 g ai/ha): 0; Plant response rating, Rice (rice (Oryra sativa); 250 g ai/ha): 0; Plant response rating, Ducksalad ([3]; 250 g ai/ha): 30; Plant response rating, Barnyardgrass [13]: 50; Barnyardgrass plant response rating (0 to 100 scale) [13]: 90; Plant response rating, Ryegrass, Italian [14]: 0; Ryegrass, Italian plant response rating (0 to 100 scale) [14]: 20; Plant response rating, Kochia (Kochia (Kochia scoparia) [15]): 0; Kochia plant response rating (0 to 100 scale) (Kochia (Kochia scoparia) [15]): 20; Plant response rating, Pigweed [16]: 0; Pigweed plant response rating (0 to 100 scale) [16]: 0; Plant response rating, Foxtail, Giant [17]: 50; Foxtail, Giant plant response rating (0 to 100 scale) [17]: 70; Plant response rating, Ragweed [18]: 0; Ragweed plant response rating (0 to 100 scale) ([18]; Preemergence, 500 g ai/ha, 0 is no effect, 100 is complete control): 0
COc1c(F)ccc(NC(=O)C2C(=O)NCC2c2cccc(C(F)(F)F)c2)c1F (racemic) [Compound 386] | 80 | 70 | 70 | 50 | 20 | 50 | 30 | 50 | 0 | 0 | 50 | 60 | 0 | 10 | 40 | 80 | 70 | 80 | 0 | 30 | Plant response rating, Sedge, Umbrella ([1]; 500 g ai/ha): 0; Plant response rating, Barnyardgrass ([2]; 500 g ai/ha): 60; Plant response rating, Rice (rice (Oryra sativa); 500 g ai/ha): 15; Plant response rating, Ducksalad ([3]; 500 g ai/ha): 70; Plant response rating, Barnyardgrass [13]: 80; Barnyardgrass plant response rating (0 to 100 scale) [13]: 80; Plant response rating, Ryegrass, Italian [14]: 30; Ryegrass, Italian plant response rating (0 to 100 scale) [14]: 50; Plant response rating, Kochia (Kochia (Kochia scoparia) [15]): 0; Kochia plant response rating (0 to 100 scale) (Kochia (Kochia scoparia) [15]): 0; Plant response rating, Pigweed [16]: 0; Pigweed plant response rating (0 to 100 scale) [16]: 0; Plant response rating, Foxtail, Giant [17]: 80; Foxtail, Giant plant response rating (0 to 100 scale) [17]: 90; Plant response rating, Ragweed [18]: 0
